The record followed here is ChEMBL document CHEMBL1139106, “Specific stabilization of DNA triple helices by indolo[2,1-b]quinazolin-6,12-dione derivatives” (Bioorg Med Chem Lett, 2007).

Structures are written as SMILES. The source made the active and inactive calls. The calls are words filed in the database; no cut-off is given here.

The species named for one test is Homo sapiens. As to the kind of experiment: Binding affinity to 14C3 DNA triplex assessed as melting temperature for transition from duplex to single strand DNA forms by UV absorption spectrometry.
In the case of `NCCCNc1ccc2c(c1)-n1c(nc3ccccc3c1=O)C2=O`, the melting temperature (Tm) was 64.7 °C.

As for `CN(CCCN)c1cc2c(cc1F)C(=O)c1nc3ccccc3c(=O)n1-2`, the Tm was 61.8 °C.

In the case of `CN(CCCN)c1ccc2c(c1)-n1c(nc3ccccc3c1=O)C2=O`, the Tm amounted to 62.3 °C.

As for `NCCCNc1cc2c(cc1F)C(=O)c1nc3ccccc3c(=O)n1-2`, the Tm was 63.8 °C.

The species entered for the next test is Homo sapiens. As to the kind of experiment: Binding affinity to 14C3 DNA triplex assessed as melting temperature for transition from triplex to duplex DNA forms by UV absorption spectrometry.
For the compound `NCCCNc1ccc2c(c1)-n1c(nc3ccccc3c1=O)C2=O`, the midpoint of thermal melting (Tm) came to 33.5 °C.

In the case of `CN(CCCN)c1cc2c(cc1F)C(=O)c1nc3ccccc3c(=O)n1-2`, the Tm is 45.3 °C.

Regarding `CN(CCCN)c1ccc2c(c1)-n1c(nc3ccccc3c1=O)C2=O`, the Tm is 39.3 °C.

Turning to `NCCCNc1cc2c(cc1F)C(=O)c1nc3ccccc3c(=O)n1-2`, the Tm was found to be 39.8 °C.

For a further test, the species on record is Homo sapiens. Kind of test: Binding affinity to 14C3 DNA triplex assessed as melting temperature change from triplex to duplex DNA forms by UV absorption spectrometry.
Take `NCCCNc1ccc2c(c1)-n1c(nc3ccccc3c1=O)C2=O`: the thermal shift (ΔTm) worked out at 13 °C.

In the case of `CN(CCCN)c1cc2c(cc1F)C(=O)c1nc3ccccc3c(=O)n1-2`, the ΔTm turned out to be 24.8 °C.

`CN(CCCN)c1ccc2c(c1)-n1c(nc3ccccc3c1=O)C2=O`: the shift in melting temperature (ΔTm) was 18.8 °C.

Turning to `NCCCNc1cc2c(cc1F)C(=O)c1nc3ccccc3c(=O)n1-2`, the thermal shift (ΔTm) was 19.3 °C.

Another test is filed under the species Homo sapiens. Kind of test: Binding affinity to 14C3 DNA triplex assessed as melting temperature change from duplex to single strand DNA forms by UV absorption spectrometry.
Regarding `NCCCNc1ccc2c(c1)-n1c(nc3ccccc3c1=O)C2=O`, the ΔTm worked out at 5.7 °C.

As to `CN(CCCN)c1cc2c(cc1F)C(=O)c1nc3ccccc3c(=O)n1-2`, the ΔTm was determined as 2.8 °C.

On to `CN(CCCN)c1ccc2c(c1)-n1c(nc3ccccc3c1=O)C2=O`, for which the ΔTm came to 3.3 °C.

Regarding `NCCCNc1cc2c(cc1F)C(=O)c1nc3ccccc3c(=O)n1-2`, the ΔTm came to 4.8 °C.

The species entered for a further test is Homo sapiens. As to the kind of experiment: Binding affinity to 14C3 DNA triplex assessed as stabilization of triplex DNA form.
Consider `COc1ccc2c(ccc3c2[nH]c2c(C)cnc(NCCCN(C)CCCN)c23)c1`, for which the outcome was Active.

For `COc1ccc2c(ccc3[nH]c4c(C)cnc(NCCCN)c4c32)c1`, the result was Active.
